These results are taken from patent publication US6362369B1, “Phthalic acid diamide derivatives fluorine-containing aniline compounds as starting material, agricultural and horticultural insecticides, and a method for application of the insecticides” (Nihon Nohyaku Co., Ltd., priority 1997, dated 2002).

What all share (type): in vivo
The test system of assay [1] is diamondback moth (Plutella xylostella). Nature of the assay: Insecticidal effect on diamondback moth (Test Example 1). The note with it: for Insecticidal effect (Test Example 1), judged from mortality / Insecticidal effect, Test Example 1: diamondback moth; for Insecticidal effect (Test Example 1), judged from mortality: judged by the criterion of Test Example 1; for Insecticidal effect on diamondback moth (Test Example 1), judged grade: mortality judged according to the criterion shown in Test Example 1. Summed up:
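Triplicate groups of 10 insects: eggs laid on Chinese cabbage seedling by adults, seedling immersed then air-dried, kept at 25° C. Day-6 hatch counts gave mortality, rated by criterion.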

Assay [2] has as its system common cutworm (Spodoptera Litura). Briefly: Insecticidal effect on common cutworm (Test Example 2). The settings on record: 500 ppm, 25° C.; for Insecticidal effect (Test Example 2), judged from mortality / Insecticidal effect on common cutworm (Test Example 2), judged grade: cabbage leaf dip; for Insecticidal effect (Test Example 2), judged from mortality: 8 days after inoculation; for Insecticidal effect, Test Example 2: cabbage leaf immersed; for Insecticidal effect, Test Example 2 / Insecticidal effect on common cutworm (Test Example 2), judged grade: eight days after inoculation; for Insecticidal effect on common cutworm (Test Example 2), judged grade: second-instar larvae. In short, it runs like this:
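Mortality was scored 8 days post-inoculation, using three groups of 10 second-instar larvae kept at 25 °C in closed 9 cm dishes on air-dried treated material. The insecticidal effect was graded from calculated mortality by a set criterion.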

In assay [3] the test system is rice leafroller (Cnaphalocrocis medinalis). Nature of the assay: Insecticidal effect on rice leafroller (Test Example 3). The note with it: 500 ppm, 25° C., humidity 70%; for Insecticidal effect (Test Example 3), judged from mortality / Insecticidal effect on rice leafroller (Test Example 3), judged grade: rice lamina dip; for Insecticidal effect (Test Example 3), judged from mortality: 4 days after inoculation; for Insecticidal effect, Test Example 3: rice lamina immersed; for Insecticidal effect, Test Example 3 / Insecticidal effect on rice leafroller (Test Example 3), judged grade: four days after inoculation; for Insecticidal effect on rice leafroller (Test Example 3), judged grade: third-instar larvae. Summed up: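 Insecticidal effect is judged by a predefined criterion from dead/alive counts four days after infesting air-dried lamina with third-instar larvae, kept on moistened filter paper at 25° C, 70% humidity.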

Setting [4] is: second-instar larvae of common cutworm.
[5] abbreviates: third-instar larvae of rice leafroller.
The mark [6] stands for this setting: judged by the mortality criterion of Test Example 1.
[7] abbreviates: mortality judged by criterion of Test Example 1.
[8] abbreviates: common cutworm second-instar larvae.
The mark [9] stands for this setting: rice leafroller third-instar larvae.

For the compound `CC(C)(C)NC(=O)c1c(I)cccc1C(=O)Nc1ccc(Cl)c2c1OC(F)(F)O2` [compound 1747], the “Insecticidal effect (Test Example 1), judged from mortality” value in assay [1] was “A (100)”. For the same compound, the “Insecticidal effect (Test Example 2), judged from mortality” value in assay [2] (setting [4]) was “C (89-80)”. In addition, in assay [3] (setting [5]), the “Insecticidal effect (Test Example 3), judged from mortality” value is “A (100)”.
Regarding `Cc1cc(OC(F)(F)C(F)C(F)(F)F)ccc1NC(=O)c1ccccc1C(=O)NC(C)C` (stereo not drawn) [compound 65], in assay [1] (setting [6]), the “Insecticidal effect, Test Example 1” value is “A (100)”. Moreover, the “Insecticidal effect, Test Example 2” value in assay [2] (setting [4]) is on record as “A (100)”. Besides, the “Insecticidal effect, Test Example 3” value in assay [3] (setting [5]) is “A (100)”.
`CCNC(=O)c1c(I)cccc1C(=O)Nc1ccc(C(F)(F)C(F)(F)F)cc1F` [compound 1502]: the “Insecticidal effect (Test Example 1), judged from mortality” value in assay [1] is “A (100)”. Also, in assay [2] (setting [4]), the “Insecticidal effect (Test Example 2), judged from mortality” value is “A (100)”. Also, the “Insecticidal effect (Test Example 3), judged from mortality” value in assay [3] (setting [5]) is “A (100)”.
For the compound `Cc1ccc(Cl)cc1NC(=O)c1cccc([N+](=O)[O-])c1C(=O)NC(C)C` [compound 665], the “Insecticidal effect on diamondback moth (Test Example 1), judged grade” value (“Insecticidal effect on diamondback moth” below) in assay [1] is recorded as “A (100)”. The “Insecticidal effect on common cutworm (Test Example 2), judged grade” value (“Insecticidal effect on common cutworm” for short) in assay [2] is “A (100)”. Moreover, the “Insecticidal effect on rice leafroller (Test Example 3), judged grade” value (“Insecticidal effect on rice leafroller” below) in assay [3] is on record as “B (99-90)”.
On to `Cc1cc(OC(F)(F)F)ccc1NC(=O)c1cccc(Cl)c1C(=O)NC(C)C` [compound 139], for which the “Insecticidal effect, Test Example 1” value in assay [1] (setting [6]) was “A (100)”. Further, the “Insecticidal effect, Test Example 2” value in assay [2] (setting [4]) is given as “A (100)”. Further, the “Insecticidal effect, Test Example 3” value in assay [3] (setting [5]) is reported as “A (100)”.
On to `Cc1cc(OC(F)(F)C(F)(Br)C(F)(F)F)ccc1NC(=O)c1cccc([N+](=O)[O-])c1C(=O)NC(C)C` (stereo not drawn) [compound 700], for which the “Insecticidal effect on diamondback moth” value in assay [1] is given as “A (100)”. Besides, the “Insecticidal effect on common cutworm” value in assay [2] is listed as “A (100)”. Besides, the “Insecticidal effect on rice leafroller” value in assay [3] is “A (100)”.
Take `CC(C)NC(=O)c1c(I)cccc1C(=O)Nc1ccc(OC(F)(F)F)cc1Cl` [compound 408]: the “Insecticidal effect, Test Example 1” value in assay [1] (setting [6]) is “A (100)”. In addition, in assay [2] (setting [4]), the “Insecticidal effect, Test Example 2” value was “B (99-90)”. Further, the “Insecticidal effect, Test Example 3” value in assay [3] (setting [5]) is reported as “A (100)”.
For `CC(C)NC(=O)c1c(Cl)cccc1C(=O)Nc1ccc(F)cc1Cl` [compound 114], in assay [1] (setting [6]), the “Insecticidal effect, Test Example 1” value is listed as “A (100)”. In addition, the “Insecticidal effect, Test Example 2” value in assay [2] (setting [4]) is listed as “A (100)”. For the same compound, the “Insecticidal effect, Test Example 3” value in assay [3] (setting [5]) was “A (100)”.
With `CC(C)NC(=O)c1c(I)cccc1C(=O)Nc1ccc(SC(F)(F)Br)cc1` [compound 1112], the “Insecticidal effect, Test Example 1” value in assay [1] (setting [7]) is recorded as “A (100)”. Moreover, the “Insecticidal effect, Test Example 2” value in assay [2] (setting [8]) is recorded as “A (100)”. Also, the “Insecticidal effect, Test Example 3” value in assay [3] (setting [9]) is on record as “A (100)”.
As to `CC(C)NC(=O)c1c(C(=O)Nc2ccc(C(F)(C(F)(F)F)C(F)(F)F)cc2Cl)cccc1[N+](=O)[O-]` [compound 703], in assay [1], the “Insecticidal effect on diamondback moth” value was “A (100)”. Moreover, the “Insecticidal effect on common cutworm” value in assay [2] was “A (100)”. Moreover, the “Insecticidal effect on rice leafroller” value in assay [3] was “A (100)”.
`CCOP(=O)(OCC)c1ccc(NC(=O)c2cccc(Cl)c2C(=O)NC(C)C)c(C)c1` [compound 161]: the “Insecticidal effect, Test Example 1” value in assay [1] (setting [6]) is “A (100)”. Besides, the “Insecticidal effect, Test Example 2” value in assay [2] (setting [4]) is reported as “D (79-50)”. Moreover, in assay [3] (setting [5]), the “Insecticidal effect, Test Example 3” value is on record as “A (100)”.
`CC(C)NC(=O)c1c(I)cccc1C(=O)Nc1ccc(Br)cc1` [compound 346]: the “Insecticidal effect, Test Example 1” value in assay [1] (setting [6]) is recorded as “A (100)”. Further, the “Insecticidal effect, Test Example 2” value in assay [2] (setting [4]) is “C (89-80)”. Moreover, in assay [3] (setting [5]), the “Insecticidal effect, Test Example 3” value is “A (100)”.
For the compound `Cc1c(Br)ccc(NC(=O)c2cccc(Br)c2C(=O)NC(C)C)c1C` [compound 273], the “Insecticidal effect, Test Example 1” value in assay [1] (setting [6]) is reported as “A (100)”. Also, the “Insecticidal effect, Test Example 2” value in assay [2] (setting [4]) is recorded as “D (79-50)”. For the same compound, the “Insecticidal effect, Test Example 3” value in assay [3] (setting [5]) was “D (79-50)”.
As to `CCCN(CCC)C(=O)c1c(I)cccc1C(=O)Nc1ccc(C(F)(F)C(F)(F)F)cc1C` [compound 1044], the “Insecticidal effect, Test Example 1” value in assay [1] (setting [7]) is “A (100)”. Moreover, the “Insecticidal effect, Test Example 2” value in assay [2] (setting [8]) is given as “A (100)”. Also, the “Insecticidal effect, Test Example 3” value in assay [3] (setting [9]) is “A (100)”.
